Laboratory results published in patent publication US20090227503A1, “PARATHYROID HORMONE TREATMENT FOR ENHANCED ALLOGRAFT AND TISSUE-ENGINEERED RECONSTRUCTION OF BONE DEFECTS” (UNIVERSITY OF ROCHESTER, priority 2008, published 2009).

Key:
femoral allograft [1] = assay: Mouse femoral allograft, torsion testing of grafted femurs (Example 1); type: in vivo, C57B1/6 mice
Method: Femoral allograft surgeries were performed on C57B1/6 mice as previously described. Briefly, a 4 mm mid-diaphyseal segment was removed by osteotomizing the femur and a processed allograft was implanted and secured in place with a stainless steel intramedullary (IM) pin. After 1 week, 8 mice were given daily subcutaneously injections of 0.4 mg/kg PTH (1-34) (Forteo, Eli Lilly and Company, Indianapolis, Ind.) while 5 mice with grafts were given the same volume of saline daily, serving as controls. Animals were sacrificed 6 weeks after surgery, the grafted femurs were carefully dissected and cleaned without disrupting the callus, and the IM pin was carefully removed. The femurs were then stored frozen at −80° C. until evaluation. After imaging, the ends of the femurs were cemented into 6.35 mm square aluminum tubes using PMMA in a custom jig to ensure axial alignment and maintain a gage length of 7.3±0.8 mm. Samples were then mounted on an EnduraTec TestBench™ system with a 200 N·mm torque cell (Bose Corp., Minnetonka, Minn.) and tested in torsion at a rate of […] until failure to determine the torsional stiffness, ultimate torque, ultimate rotation, and strain energy to failure. Mode of Failure was determined by x-ray after testing. As described previously (Reynolds D G, et al; J. Biomech. 2007; E-pub May 22) the mode of failure can be categorized by location of the failure. “Pre-union” failures occur at the graft-host junction resulting in an intact graft that simply pulled out from the callus. “Early union” failures occur near the graft-host junction, but involve partial fragmentation of the graft or host bone.

[2] = test system: non-union tibial fracture; assay: Union Area from clinical CT of a patient with non-union tibial fracture; type: in vivo, human; settings: one patient, after 4 months of teriparatide treatment
Text: We used our custom MATLAB software to contour the segment of bone on one side of the fracture site similarly to contouring around the murine graft. The surface area forming union to the other side of the fracture was then estimated by the software. […] FIG. 12 illustrates clinical x-rays of an anonymous patient's fractured tibia before and after 4 months of teriparatide therapy, 160 and 165, respectively and CT scan data of the patient before and after 4 months of teriparatide therapy, 170 and 175, respectively; and Union Area, shown in grey in 170 and 175, of the patient before and after 4 months of teriparatide therapy, 180 and 185, respectively. The effects of teriparatide on fracture healing were quantified as a 2.8 fold increase in Union Area.

femoral allograft [3] = assay: Mouse femoral allograft, micro-CT of callus (Example 1); type: in vivo, C57B1/6 mice
Method: Femoral allograft surgeries were performed on C57B1/6 mice as previously described. Briefly, a 4 mm mid-diaphyseal segment was removed by osteotomizing the femur and a processed allograft was implanted and secured in place with a stainless steel intramedullary (IM) pin. After 1 week, 8 mice were given daily subcutaneously injections of 0.4 mg/kg PTH (1-34) (Forteo, Eli Lilly and Company, Indianapolis, Ind.) while 5 mice with grafts were given the same volume of saline daily, serving as controls. Animals were sacrificed 6 weeks after surgery, the grafted femurs were carefully dissected and cleaned without disrupting the callus, and the IM pin was carefully removed. The femurs were then stored frozen at −80° C. until evaluation. Specimens were scanned at 10.5 micron isotropic resolution using a Scanco VivaCT 40 (Scanco Medical AG, Bassersdorf, Switzerland). Callus bone volume adjacent to the graft was manually segmented from all axial slices that contained grafted bone. The mineralized callus volume, callus bone mineral density (BMD) and total mineral content (BMC) were determined.

[4] = test system: intact contralateral femurs; assay: Micro-CT of intact contralateral femurs (Example 4); type: in vivo, mice; settings: 6 weeks
grafted femurs = assay: Histology of grafted femurs (Example 4); type: in vivo, mice
Method: A second cohort of 16 animals underwent the same surgery with sacrifice of 8 animals at 4 weeks and 8 animals at 6 weeks post-surgery to evaluate the degree of vascularization of the graft and callus region using vascular profusion as described previously (Duvall 2004). Half of the animals were treated with PTH, and the other half with saline. After micro-CT imaging for vascular analysis, specimens were processed for histology. Mid-sagittal sections were stained with alcian blue, hematoxylin, eosin and orange G. Micro-CT images were manually resliced using NIH ImageJ software in the same plane as the histology sections to compare the imaging modalities (data not shown).

[5] = test system: critical 4 mm femoral defects; assay: PLA and PLA/βTCP scaffold reconstruction of critical 4 mm femoral defects, micro-CT and torsion (Example 2); type: in vivo, mouse
Text: (scale bars 25 in B & C represent 200 microns. Arrow head in panel C points to βTCP particles). Titanium pins 30 were passed through the lumen of the scaffolds 15 (panel D) to be used for fixation of the scaffolds when implanted as standalone femoral graft substitutes in critical 4 mm femoral defects in our previously established mouse model (see Example 1). The grafted animals were either treated with daily (5 days/week) injections of PTH or left untreated (Controls). […] When grafts were harvested at 9 weeks and following micro-CT imaging, scaffold-grafted femurs were tested in torsion at a rate of 1°/sec. […] The scaffold-grafted femurs were tested in torsion to determine their biomechanical properties, including maximum torque (panels A&B), torsional rigidity (panels C&D), and ultimate normalized rotation or twist (panels E&F). Panels A, C, and E show the average properties for both scaffold types in control and PTH treated animals. Panels B, D, and F show the maximum torque, torsional rigidity, and ultimate twist, respectively, of specimens that developed a bridging union compared to non-union control and PTH-treated specimens. Data are presented as mean+SEM. Asterisk indicates significant differences from control (p<0.05).

[6] = 0.4 mg/kg PTH (1-34) s.c. daily, 6 weeks after surgery, Mean (Standard Deviation)
[7] = of 8 PTH treated mice, all 5 controls pre-union
[8] = 0.4 mg/kg PTH (1-34) s.c. daily from week 1, 6 weeks after surgery, Mean (Standard Deviation)
[9] = vs saline, 6 weeks after surgery
[10] = PTH contralateral femur, mean, N = 8

CC[C@H](C)[C@H](NC(=O)[C@H](CCC(=O)O)NC(=O)[C@H](CO)NC(=O)[C@@H](NC(=O)[C@@H](N)CO)C(C)C)C(=O)N[C@@H](CCC(N)=O)C(=O)N[C@@H](CC(C)C)C(=O)N[C@@H](CCSC)C(=O)N[C@@H](Cc1cnc[nH]1)C(=O)N[C@@H](CC(N)=O)C(=O)N[C@@H](CC(C)C)C(=O)NCC(=O)N[C@@H](CCCCN)C(=O)N[C@@H](Cc1cnc[nH]1)C(=O)N[C@@H](CC(C)C)C(=O)N[C@@H](CC(N)=O)C(=O)N[C@@H](CO)C(=O)N[C@@H](CCSC)C(=O)N[C@@H](CCC(=O)O)C(=O)N[C@@H](CCCN=C(N)N)C(=O)N[C@H](C(=O)N[C@@H](CCC(=O)O)C(=O)N[C@@H](Cc1c[nH]c2ccccc12)C(=O)N[C@@H](CC(C)C)C(=O)N[C@@H](CCCN=C(N)N)C(=O)N[C@@H](CCCCN)C(=O)N[C@@H](CCCCN)C(=O)N[C@@H](CC(C)C)C(=O)N[C@@H](CCC(N)=O)C(=O)N[C@@H](CC(=O)O)C(=O)N[C@H](C(=O)N[C@@H](Cc1cnc[nH]1)C(=O)N[C@@H](CC(N)=O)C(=O)N[C@@H](Cc1ccccc1)C(=O)O)C(C)C)C(C)C [PTH, PTH (1-34)]
Energy to failure (femoral allograft [1]; [6]): 0.25 (0.31)
Normalized Rotation at TUlt (femoral allograft [1]; [6]): 0.97 (0.23) deg/mm gage length
Ultimate Torque (femoral allograft [1]; [6]): 13.5 (4.7) N*mm
normalized rotation at peak torque (femoral allograft [1]; 6 weeks): 0.97 degrees per mm of gage length
stiffness as share of normal unoperated femur properties (femoral allograft [1]; after 6 weeks of healing): ~120%
strength as share of normal unoperated femur properties (femoral allograft [1]; after 6 weeks of healing): ~67%
specimens failing in "early union" mode (femoral allograft [1]; [7]): 2
specimens with "mature union" failure (femoral allograft [1]; [7]): 1
enhancement in ultimate torque (femoral allograft [1]; vs saline, 6 weeks): 1.65 fold
stiffness relative to saline (times stiffer) (femoral allograft [1]; vs saline, 6 weeks): 3.3 times
increase in mineralized Union Area [2]: 2.8 fold
Callus BMC (femoral allograft [3]; [8]): 2.77 (0.53) mg HA
Callus BMD (femoral allograft [3]; [8]): 665 (17) mg HA/cm^3
Callus Bone Volume (femoral allograft [3]; [8]): 4.17 (0.80) mm^3
samples with callus bridging the graft from host to host (femoral allograft [3]; 6 weeks after surgery, saline 20%): 63%
increase in callus bone volume (femoral allograft [3]; [9]): 1.9 fold
net increase in total callus mineral content (femoral allograft [3]; [9]): 60%
reduction in callus BMD (femoral allograft [3]; [9]): 13%
contralateral intact femur's diaphyseal BMCPTH:BMCSaline [4]: 1.17
A-P Periosteal Diameter [4, 10]: 1.30 mm
Cortical Bone Density [4, 10]: 1179 mgHA/cc
Cortical Thickness [4, 10]: 0.199 mm
Cross-Sectional Area [4, 10]: 0.82 mm²
M-L Periosteal Diameter [4, 10]: 1.85 mm
Polar Moment of Inertia [4, 10]: 0.36 mm^4
osteoclastic graft resorption (grafted femurs; PTH treatment for 6 weeks): did not stimulate osteoclastic graft resorption
cartilage formation at the site of bone injury (grafted femurs; persisted through 4 weeks after surgery): Cartilage formation was increased
animals that developed a mineralized callus bridging the defect (union) ([5]; 9 weeks post-reconstruction, both scaffolds, daily (5 days/week) PTH, none in controls): 30%
torsion behavior of bridged grafts ([5]; 9 weeks, torsion at 1°/sec): prototypical brittle bone torsion behavior
biomechanical properties of scaffold-grafted femurs (maximum torque, torsional rigidity, ultimate twist) ([5]; 9 weeks, vs control): improved the biomechanical properties of the scaffold-grafted femurs especially in femurs with bridging unions
volume of the mineralized callus ([5]; PLA and PLA/βTCP scaffolds, 6 and 9 weeks post-reconstruction, vs control): increased the volume of the mineralized callus regardless of the scaffold type
